Reference: PMC6154694, “Absorption, Metabolic Stability, and Pharmacokinetics of Ginger Phytochemicals” (Molecules : A Journal of Synthetic Chemistry and Natural …, 2017)

Tests used:
[1] = pH dependent kinetic solubility in hydrochloride, citrate and phosphate buffers; assay type: physicochemical; conditions: 23 °C, kinetic from dmso stock, tested 10 to 100 µM, n = 2
Method: Calibration standards were prepared by spiking 5 μL of DMSO stock solutions into 995 μL acetonitrile/buffer (1:1) mixture. Following centrifugation (10,000 rpm, 10 min, 25 °C) the reaction samples were diluted 1:1 with acetonitrile.

[2] = Liver microsomal stability, mouse; assay type: in vitro ADME, CD1 mouse; conditions: protein 0.5 mg/mL
Method: Pooled liver microsomes from CD1 mouse, IGS Sprague-Dawley rat, Beagle dog, and mixed gender human were used for assays. Incubations (1 mL) consisted of liver microsomes (0.5 mg/mL), NADPH (1 mM) and 100 mM sodium phosphate buffer (pH 7.4). Following pre-incubation (10 min, 37 °C), reactions were initiated by spiking ACN/DMSO (80:20) stock solutions of GE phenolics (5 μL, 10 μM). Samples (100 μL) were withdrawn at 0, 5, 10, 15, 20 and 30 min and quenched with 200 μL acetonitrile containing internal standard. Concomitant NADPH-free control incubations were prepared similarly.

[3] = Mouse pharmacokinetic study of oral GE with and without ketoconazole, plasma with and without β-glucuronidase treatment; assay type: in vivo, male mice (C57BL6J); conditions: for Concentration Ratio (Total/Free) of GE Phenolics: GE administered group; for Concentration Ratio (Total/Free) of GE Phenolics / concentration at 0 h / concentration at 0.087 h / concentration at 0.167 h / concentration at 0.25 h / concentration at 0.5 h / concentration at 1 h / concentration at 2 h / concentration at 3 h / concentration at 4 h / concentration at 6 h / concentration at 8 h / concentration at 12 h: mouse plasma; for concentration at 0 h / concentration at 0.087 h / concentration at 0.167 h / concentration at 0.25 h / concentration at 0.5 h / concentration at 1 h / concentration at 2 h / concentration at 3 h / concentration at 4 h / concentration at 6 h / concentration at 8 h / concentration at 12 h: −βgd
Method: A solution formulation of GE was prepared by using 5% ethanol, 5% Tween 80, 40% polyethylene glycol, and 50% corn oil. The dose volume was 10 mL/kg and the dose administered was 250 mg/kg GE.
Pharmacokinetic study in male mice (C57BL6J, Harlan Laboratories, Indianapolis, IN, USA) was run with 36 animals in each group at a GE dose of 250 mg/kg with a dose volume of 10 mL/kg. One group was given GE alone and in the second group GE was co-administered with KTZ (50 mg/kg). A terminal sampling design was used to collect blood samples at 0 (pre-dose), 0.08, 0.16, 0.25, 0.5, 1, 2, 3, 4, 6, 8, and 12 h. At each time, 1 mL of blood was collected in ethylenediaminetetraacetic acid di-potassium salt (K2EDTA) tubes (BD Biosciences, Franklin Lakes, NJ, USA). Plasma was separated by centrifugation of samples at 4000 rpm for 10 min and stored below −60 °C till bioanalysis. All experiments were performed with approval from the Institutional Animal Care and Use Committee (IACUC, approval code: A14031). All animals were acclimatized for five days before dosing in the experimental area. Food and water was provided ad libitum throughout the study period. Animals were marked and housed (three per cage, n = 36 per group) in polypropylene cages and maintained in controlled environmental conditions with 12 h light and dark cycles. The temperature and humidity of the room was maintained between 22 ± 3 °C and 30% to 50%, respectively, and approximately 10–12 fresh air change cycles per hour.
To confirm the presence of GE glucuronide conjugates, plasma (100 μL) was treated with βgd (20 μL, 500 units) and incubated at 37 °C for 1 h. Each sample was analyzed twice with and without β-gd treatment. Samples without gde treatment were diluted with 20 μL of buffer. Total (conjugated + free) and free ginger phenolics data were reported following bioanalysis.
All in vitro and in vivo samples were processed by protein precipitation method. An aliquot (100 μL) of the sample was spiked with 200 μL of acetonitrile containing dihydrocapsaicin as internal standard (IS) and vortex mixed for 3 min. The tubes were centrifuged at 12,000 rpm for 10 min and an aliquot of supernatant was transferred into autosampler vials for analysis. The stock solutions of 6G, 8G, 10G, and 6S were prepared in ACN/water (70:30) at 1 mg/mL. A calibration curve (CC) range of 2–2000 ng/mL was employed for the quantification of analytes and IS concentration was 150 ng/mL for each analysis. The CC consisted of blank, blank with IS and seven non-zero calibration standards. The calibration standards were within ±15% of the nominal concentration and lower limit of quantification was within ±20% of nominal. All samples were analyzed using liquid chromatography tandem mass spectrometry (LC-MS/MS) method (Agilent 6410 series, Santa Clara, CA, USA). A positive ionization mode with multiple reaction monitoring (MRM, m/z Q1/Q3) of 6G (m/z 277.1/177.1, retention time (RT) 2.0 min), 8G (m/z 305.1/177.1, RT 4.0 min), 10G (m/z 333.1/177.1, RT 7.7 min), 6S (m/z 277.1/137.1, RT 5.1 min), and IS (m/z 308.2/137.1, RT 3.4 min) was employed. The ion spray voltage was set at 3500 V, ionization temperature was set to 300 °C and drying gas flow rate was 10 L/min. Data acquisition and quantitation were performed using Mass Hunter software (Agilent Technologies, Wilmington, DE, USA). Separation was achieved using HP1100 series LC (Agilent Technologies) with an Agilent Zorbax reversed-phase (SB-C18, 2.1 × 50 mm, 5.0 μm) column. A gradient method was employed to separate the individual GE phenolics using mobile phase A (0.1% formic acid in water) and mobile phase B (Acetonitrile). The gradient elution method with 50% B at 0 min, 90% B at 5 min, held for 2.1 min, back to 50% B at 7.1 min with a flow rate of 0.2 mL/min. An injection volume of 2 μL was used for analysis. […]

[4] = male, C57BL6J, mouse, plasma, po, 250 mg/kg, mouse, 250 mg/kg GE + 50 mg/kg KTZ oral, +KTZ −βgd

**Q.** With `CCCCCCCC(O)CC(=O)CCc1ccc(O)c(OC)c1` (centres unmarked) [8G, 8-gingerol] as the compound, how does the solubility at 2 h ([1]; 100 mM citrate buffer, aqueous buffer, pH 4, citrate buffer) read?
**A.** The solubility at 2 h was greater than 100 µM.

**Q.** What about the solubility at 2 h ([1]; 100 mM phosphate buffer, aqueous buffer, pH 7.4, phosphate buffer) of the same compound?
**A.** Its solubility at 2 h is greater than 100 µM.

**Q.** And the solubility at 2 h ([1]; simulated gastric fluid, pH 2, hydrochloride buffer)?
**A.** Its solubility at 2 h is greater than 100 µM.

**Q.** And the remaining at 0.5 h, 10 µM ([2]; CD1, pooled liver microsomes, pH 7.4, substrate 10 µM, n = 2, read-out: % Remaining at 30 min)?
**A.** The remaining at 0.5 h, 10 µM was 3%.

**Q.** What about the “Intrinsic Clearance” value ([2]; mouse liver microsomes, substrate 10 µM, 45 mg protein/g liver) of the same compound?
**A.** The value was 15.1 mL/min/g Liver.

**Q.** And the “AUClast Ratio” value ([3]; +KTZ +βgd, reference GE group co-administered with KTZ untreated with βgd)?
**A.** The value was 23.

**Q.** What about the “AUClast Ratio” value ([3]; +KTZ +βgd, reference GE group untreated with βgd) of the same compound?
**A.** The value was 1330.

**Q.** What about the “AUClast Ratio” value ([3]; +KTZ −βgd, reference GE group untreated with βgd) of the same compound?
**A.** Its value is 59.

**Q.** And the “Concentration Ratio (Total/Free) of GE Phenolics” value (“Concentration Ratio (Total/Free)” below) ([3]; 0 h)?
**A.** Its value is 0.

**Q.** And the “Concentration Ratio (Total/Free)” value ([3]; 0.087 h)?
**A.** The value was 532.

**Q.** And the “Concentration Ratio (Total/Free)” value ([3]; 0.167 h)?
**A.** Its value is 439.

**Q.** What about the “Concentration Ratio (Total/Free)” value ([3]; 0.25 h) of the same compound?
**A.** Its value is 653.

**Q.** And the “Concentration Ratio (Total/Free)” value ([3]; 0.5 h)?
**A.** The value was 948.

**Q.** And the “Concentration Ratio (Total/Free)” value ([3]; 1 h)?
**A.** Its value is 16.

**Q.** What about the “Concentration Ratio (Total/Free)” value ([3]; 2 h) of the same compound?
**A.** The value was 44.

**Q.** And the “Concentration Ratio (Total/Free)” value ([3]; 3 h)?
**A.** The value was 29.

**Q.** And the “Concentration Ratio (Total/Free)” value ([3]; 4 h)?
**A.** Its value is 14.

**Q.** And the “Concentration Ratio (Total/Free)” value ([3]; 6 h)?
**A.** The value was 23.

**Q.** And the “Concentration Ratio (Total/Free)” value ([3]; 8 h)?
**A.** Its value is 0.

**Q.** And the “Concentration Ratio (Total/Free)” value ([3]; 12 h)?
**A.** The value was 0.

**Q.** And the AUC(0-t) [3, 4]?
**A.** The AUC(0-t) was 59.1 ng·h/mL.

**Q.** And the Cmax [3, 4]?
**A.** The Cmax was 45.7 ng/mL.

**Q.** And the Tmax [3, 4]?
**A.** The Tmax was 30 min.

**Q.** And the concentration at 0 h ([3]; male, C57BL6J, 250 mg/kg GE oral, 0 h)?
**A.** The concentration at 0 h was 0 ng/mL.

**Q.** What about the concentration at 0.087 h ([3]; male, C57BL6J, 250 mg/kg GE oral, 0.087 h) of the same compound?
**A.** Its concentration at 0.087 h is 0.58 ± 0.45 ng/mL.

**Q.** What about the concentration at 0.167 h ([3]; male, C57BL6J, 250 mg/kg GE oral, 0.167 h) of the same compound?
**A.** Its concentration at 0.167 h is 0.2 ± 0.14 ng/mL.

**Q.** What about the concentration at 0.25 h ([3]; male, C57BL6J, 250 mg/kg GE oral, 0.25 h) of the same compound?
**A.** The concentration at 0.25 h was 0.11 ± 0.05 ng/mL.

**Q.** And the concentration at 0.5 h ([3]; male, C57BL6J, 250 mg/kg GE oral, 0.5 h)?
**A.** Its concentration at 0.5 h is 0.23 ± 0.08 ng/mL.

**Q.** And the concentration at 1 h ([3]; male, C57BL6J, 250 mg/kg GE oral, 1 h)?
**A.** The concentration at 1 h was 0.42 ± 0.42 ng/mL.

**Q.** And the concentration at 2 h ([3]; male, C57BL6J, 250 mg/kg GE oral, 2 h)?
**A.** Its concentration at 2 h is 0.43 ± 0.11 ng/mL.

**Q.** What about the concentration at 3 h ([3]; male, C57BL6J, 250 mg/kg GE oral, 3 h) of the same compound?
**A.** Its concentration at 3 h is 0.81 ± 0.66 ng/mL.

**Q.** And the concentration at 4 h ([3]; male, C57BL6J, 250 mg/kg GE oral, 4 h)?
**A.** The concentration at 4 h was 0.51 ± 0.33 ng/mL.

**Q.** And the concentration at 6 h ([3]; male, C57BL6J, 250 mg/kg GE oral, 6 h)?
**A.** The concentration at 6 h was 0.49 ± 0.3 ng/mL.

**Q.** And the concentration at 8 h ([3]; male, C57BL6J, 250 mg/kg GE oral, 8 h)?
**A.** Its concentration at 8 h is 0.57 ± 0.23 ng/mL.

**Q.** What about the concentration at 12 h ([3]; male, C57BL6J, 250 mg/kg GE oral, 12 h) of the same compound?
**A.** Its concentration at 12 h is 0.1 ± 0.05 ng/mL.

**Q.** And the concentration at 0 h ([3]; male, C57BL6J, 250 mg/kg GE with 50 mg/kg ketoconazole oral, 0 h)?
**A.** Its concentration at 0 h is 0 ng/mL.

**Q.** And the concentration at 0.087 h ([3]; male, C57BL6J, 250 mg/kg GE with 50 mg/kg ketoconazole oral, 0.087 h)?
**A.** The concentration at 0.087 h was 0.48 ± 0.2 ng/mL.

**Q.** And the concentration at 0.167 h ([3]; male, C57BL6J, 250 mg/kg GE with 50 mg/kg ketoconazole oral, 0.167 h)?
**A.** Its concentration at 0.167 h is 0.63 ± 0.12 ng/mL.

**Q.** And the concentration at 0.25 h ([3]; male, C57BL6J, 250 mg/kg GE with 50 mg/kg ketoconazole oral, 0.25 h)?
**A.** The concentration at 0.25 h was 6.93 ± 9.15 ng/mL.

**Q.** What about the concentration at 0.5 h ([3]; male, C57BL6J, 250 mg/kg GE with 50 mg/kg ketoconazole oral, 0.5 h) of the same compound?
**A.** Its concentration at 0.5 h is 7560 ng/mL.

**Q.** What about the concentration at 1 h ([3]; male, C57BL6J, 250 mg/kg GE with 50 mg/kg ketoconazole oral, 1 h) of the same compound?
**A.** The concentration at 1 h was 17.9 ± 19.1 ng/mL.

**Q.** What about the concentration at 2 h ([3]; male, C57BL6J, 250 mg/kg GE with 50 mg/kg ketoconazole oral, 2 h) of the same compound?
**A.** The concentration at 2 h was 16300 ng/mL.

**Q.** What about the concentration at 3 h ([3]; male, C57BL6J, 250 mg/kg GE with 50 mg/kg ketoconazole oral, 3 h) of the same compound?
**A.** Its concentration at 3 h is 11.7 ± 7.35 ng/mL.

**Q.** And the concentration at 4 h ([3]; male, C57BL6J, 250 mg/kg GE with 50 mg/kg ketoconazole oral, 4 h)?
**A.** The concentration at 4 h was 2.25 ± 1.56 ng/mL.

**Q.** And the concentration at 6 h ([3]; male, C57BL6J, 250 mg/kg GE with 50 mg/kg ketoconazole oral, 6 h)?
**A.** Its concentration at 6 h is 3.71 ± 2.18 ng/mL.

**Q.** And the concentration at 8 h ([3]; male, C57BL6J, 250 mg/kg GE with 50 mg/kg ketoconazole oral, 8 h)?
**A.** Its concentration at 8 h is 1.17 ± 0.11 ng/mL.

**Q.** And the concentration at 12 h ([3]; male, C57BL6J, 250 mg/kg GE with 50 mg/kg ketoconazole oral, 12 h)?
**A.** The concentration at 12 h was 0.67 ± 0.17 ng/mL.
